Test results from US12390435B2, “Electrophiles and electrophile pro-drugs as RAD51 inhibitors” (University of Pittsburgh—Of the Commonwealth System of …, priority 2018, dated 2025).

What was measured:
[1] = system: MDA-MB-231 and MDA-MB-468 cells; test: MTT viability / cytotoxicity; format: cell-based
MCF-10A cells = test: GSH and GSSG LC-MS/MS; format: cell-based; details: 5 μM, 0 to 12 hr
Description: (§1) MCF-10A, MDA-MB-231, and MDA-MB-468 cells were seeded in 24-well plates at a density of 3×10^5 cells/well. […] At each time point, cell media was aspirated and washed 2 times with sterile PBS. Cells were then incubated with PBS containing 25 mM N-ethylmaleimide (NEM) for 15 min at 37° C. Derivatizing solution (50 μL of 15% MeOH, 40 mM HEPES, 50 mM NaCl, 1 mM EDTA, 2 μM [^13C2^15N]-GSH, 2 μM [^13C4^15N2]-GSSG, and 25 mM NEM) was added to each well and incubated for 15 min at room temperature. Next, 50 μL, of 10% (w/v) sulfosalicylic acid solution was immediately added to each well to stabilize GSH and GSSG. Supernatant was collected by centrifugation at 15,000 RPM for 10 min at 4° C. Samples were diluted 1:5 in 5% sulfosalicylic acid and 20 μL, was injected for HPLC-MS/MS analysis. Cell numbers at time 0 hr were quantitated by Hoechst 33258 DNA stain assay and used to normalized GSH or GSSG levels expressed as nmol/cells (×10^6).
(§2) Samples were applied to the column at 30% B and eluted with a linear increase in solvent B (30-100% in 9.7 min). The column was washed at 100% B for 3 min before returning to initial conditions for equilibration (2 min). […] Sample [GSH] and [GSSG] were determined from analyte:I.S. area ratios, and intracellular GSH and GSSG were normalized to cell number (10^6), with results expressed as nmol GSH or GSSG per 10^6 cells.

[2] = system: MDA-MB-231 and MDA-MB-468 cells; test: GSH and GSSG LC-MS/MS; format: cell-based; details: 5 μM, 0 to 12 hr
Description: as §1, §2

[3] = system: MDA-MB-231 and MDA-MB-468 cells; test: Boyden chamber cell migration; format: cell-based; details: 5 μM
Description: MDA-MB-231 and MDA-MB-468 cells were subjected to cell migration analysis in Boyden chambers. The bottom of a 12-well membrane filter (BD Biosciences) was coated with 10 μg/mL fibronectin for 12 hr before each experiment. […] Cells were trypsinized and washed with migration media (DMEM containing 0.1% fatty acid-free BSA) to remove serum. Cells at a density of 10^5/well were then placed in the upper chamber with migration media containing the same pretreatment conditions. The cells were allowed to migrate towards the 5% FBS chemoattractant for 5 hr. Non-migrated cells from the top surface were removed with cotton swabs. Migrated cells were fixed with 4% paraformaldehyde (Electron Microscopy Sciences), then stained with 0.5% crystal violet (Sigma-Aldrich) for 15 min. Migrated cell density on the filters was observed by microscopy. The crystal violet on migrated cells was de-stained with 10% acetic acid, and the absorbance in individual filters was determined at […] nm. Images are representative of three individual experiments, and statistical comparison among treatments was determined by one-way analysis of variance followed by Tukey post-test.

RelA = molecular target: T1, RelA (Homo sapiens, UniProt Q04206); test: Biotinylated NO2-FA protein alkylation pull-down and proteomics; format: binding; details: recombinant RelA protein
T1 construct: endogenous in cells; host or cells: MDA-MB-231, MDA-MB-468
Description: After 2 hr cells were harvested in lysis buffer containing 1% Triton X, 10% glycerol, 150 mM NaCl, 10 mM HEPES, 1 mM EDTA, 1 mM EGTA, and supplemented with a mixture of protease and phosphatase inhibitors (Roche Applied Science). Total cell lysates (0.5-1 mg) were mixed and incubated with streptavidin agarose beads (Sigma-Aldrich) at 4° C., overnight. Beads were washed three times using lysis buffer. After SDS-PAGE, immunoblotting was performed using anti-RelA mouse monoclonal antibody (Santa Cruz Biotechnology) or anti-IKKβ rabbit polyclonal antibody (Cell Signaling). Proteomics analysis for the alkylation of RelA by NO2-OA was also conducted using recombinant RelA protein and LC-MS/MS analysis.

T1 sequence (Q04206 whole entry): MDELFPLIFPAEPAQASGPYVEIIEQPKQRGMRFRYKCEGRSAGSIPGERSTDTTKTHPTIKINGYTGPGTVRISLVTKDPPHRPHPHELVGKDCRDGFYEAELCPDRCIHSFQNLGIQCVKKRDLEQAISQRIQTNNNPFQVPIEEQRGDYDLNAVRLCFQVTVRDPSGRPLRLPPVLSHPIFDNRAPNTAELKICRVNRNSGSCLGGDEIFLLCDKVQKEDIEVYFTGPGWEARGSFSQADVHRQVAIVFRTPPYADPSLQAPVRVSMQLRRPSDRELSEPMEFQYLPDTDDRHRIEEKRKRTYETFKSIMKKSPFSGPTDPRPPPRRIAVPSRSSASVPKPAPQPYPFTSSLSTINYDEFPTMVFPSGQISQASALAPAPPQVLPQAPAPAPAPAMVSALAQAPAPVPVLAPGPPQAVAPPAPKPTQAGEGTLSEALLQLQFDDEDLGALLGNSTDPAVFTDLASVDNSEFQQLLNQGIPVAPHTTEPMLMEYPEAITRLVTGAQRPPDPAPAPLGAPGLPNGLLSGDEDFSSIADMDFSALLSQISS

With `CCCCCCCCC(=CCCCCCCCC(=O)O)[N+](=O)[O-]` [NO2-OA, 10-nitro-octadec-9-enoic acid] the “cell viability (MTT)” value [1] was “significantly reduced the viability”, the cytotoxicity ([1]; 5 μM, up to 24 hr, any cell line) was “No cytotoxicity was detectable” and the “GSH:GSSG ratio after treatment” value (MCF-10A cells) was “maintained the GSH:GSSG ratio over the first 6 hr”. The “GSH:GSSG ratio after treatment” value [2] was “rapidly decreased”, the “basal, non-stimulated migration” value [3] was “modestly inhibited” and the TNFα-induced cell migration ([3]; TNFα 20 ng/mL) was “significantly inhibited”. For the same compound, the “RelA Cys105 alkylation (LC-MS/MS proteomics)” value (RelA) was “alkylated”.
